# Assay results as given in patent US20080318789A1, “Seed germination acceleration” (priority 2007, published 2008).
# Test system: canola (cv. Westar) seed
# Experiment: Petri plate germination study of treated canola seed at 6° C.
# Type: in vivo
# Conditions: petri plates at 6° C., n = 3 plates of 15 seeds; for Percent germinated Day 5: day 5 after treatment; for Percent germinated Day 6: day 6 after treatment; for Percent germinated Day 7: day 7 after treatment
# Description: For all seed treatments, 1 ppm active ingredient refers to 1 microgram active ingredient per gram of seed. For these studies, GA3, GA4/7, 6BA or CPPU were each dispensed into a 15 ml centrifuge tube, and 2.5 ml of de-ionized water was then added to each tube. The solution was mixed on a vortex mixer and 0.015 ml of this solution was then placed in another 15 ml. centrifuge tube along with 0.6 grams of canola seeds (cv. Westar). Seeds were mixed by rotating 360° on a Labquake Rotisserie for 30 minutes. To simulate commercial seed treatments, the amount of solutions was just sufficient to wet the seeds. After treating, the seeds were placed in weigh boats for overnight drying. Petri plate studies: Each standard petri plate (100 mm×50 mm) contained 1 blue Anchor germination circle (3¼ inches in diameter) drenched with 8 ml of de-ionized water cooled to 6° C., Each treatment consisted of 3 petri plates of 15 seeds each. After plating, the petri plates were placed in a Nalgene plastic container pre-cooled to 6° C. The plastic container containing the petri plates was placed in a growth chamber at 6° C. with a 16-hour light cycle for the duration of the study. Seeds were visually observed daily for germination as determined by emergence of root from the seed coat. Canola seeds (cv. Westar) were treated with solutions containing GA4/7, GA3, 6BA, or CPPU. The solutions were sufficient only to wet the seeds. The amount of applied GA4/7 ([…]), GA3 (0.5, 5 or 50 ppm), 6BA (5 or 50 ppm), or CPPU (5 or 50 ppm) is expressed as ppm or micrograms of compound per gram of seed.
SMILES,Percent germinated Day 5 (seed treatment 5 ppm) [%],Percent germinated Day 6 (seed treatment 5 ppm) [%],Percent germinated Day 7 (seed treatment 5 ppm) [%],Percent germinated Day 5 (seed treatment 50 ppm) [%],Percent germinated Day 6 (seed treatment 50 ppm) [%],Percent germinated Day 7 (seed treatment 50 ppm) [%],Percent germinated Day 5 (seed treatment 0.5 ppm) [%],Percent germinated Day 6 (seed treatment 0.5 ppm) [%],Percent germinated Day 7 (seed treatment 0.5 ppm) [%]
c1ccc(CNc2ncnc3nc[nH]c23)cc1 [6BA],0,0,0,0,0.3,0.3,–,–,–
"O=C(Nc1ccccc1)Nc1ccnc(Cl)c1 [CPPU, 1-(2-chloro-4-pyridyl)-3-phenylurea]",0,0,0.3,0,0,0,–,–,–
"C=C1C[C@]23C[C@@]1(O)CC[C@H]2[C@@]12C=C[C@H](O)[C@@](C)(C(=O)O1)[C@H]2[C@@H]3C(=O)O [GA3, (1α,2β,4aα,4bβ,10β)-2,4-a,7-trihydroxy-1-methyl-8-methylenegibb-3-ene-1,10-dicarboxylic acid 1,4a-lactone]",0,0.3,0.7,0.3,2.7,5.0,0,0.3,0.3
